Experimental data from patent US9101628B2, “Methods and composition of treating a flaviviridae family viral infection” (The Board of Trustees of the Leland Stanford Junior …, priority 2007, dated 2015).

System: HCV RNA replication
Assay: RNA replication inhibition assay (luciferase reporter-linked HCV genome)
Conditions: Hepatitis C virus, percentage of untreated control population; for activity at 5 µM: read-out: Residual Luciferase activity, 5 micromolar; for activity at 10 µM: read-out: Residual Luciferase activity, 10 micromolar

SMILES | activity at 5 µM | activity at 10 µM
Cc1cc2ncn(Cc3ccc(Cl)cc3)c2cc1Cl [Compound 65] | < 80% | < 55%
Cc1cc2c(ncn2Cc2ccc(Cl)cc2)c([N+](=O)[O-])c1C [Compound 66] | < 80% | < 55%
Cc1cc2c(ncn2Cc2ccc(Cl)cc2)c(N)c1C [Compound 67] | < 80% | < 80%
CC(=O)Nc1c(C)c(C)cc2c1ncn2Cc1ccc(Cl)cc1 [Compound 68] | > 80% | > 80%
Cc1cc2c(ncn2Cc2ccc(Cl)cc2)c(NC(=O)C(C)C)c1C [Compound 69] | > 80% | < 80%
Cc1cc2c(ncn2Cc2ccc(Cl)cc2)c(NC(=O)C(F)(F)F)c1C [Compound 70] | > 80% | > 80%
Cc1cc2c(ncn2Cc2ccc(Cl)cc2)c(NC(=O)c2ccccc2)c1C [Compound 71] | > 80% | > 80%
CCCCNC(=O)Nc1c(C)c(C)cc2c1ncn2Cc1ccc(Cl)cc1 [Compound 72] | > 80% | > 80%
CCN(CC)c1c(C)c(C)cc2c1ncn2Cc1ccc(Cl)cc1 [Compound 73] | < 80% | < 55%
Cc1ccccc1Cn1cnc2c(NS(C)(=O)=O)c(C)c(C)cc21 [Compound 74] | > 80% | > 80%
Cc1cccc(Cn2cnc3c(NS(C)(=O)=O)c(C)c(C)cc32)c1 [Compound 75] | > 80% | < 80%
Cc1cc2c(nc(C)n2Cc2ccccc2)c(NS(C)(=O)=O)c1C [Compound 76] | > 80% | < 80%
Cc1cccc(Cn2c(C)nc3c(NS(C)(=O)=O)c(C)c(C)cc32)c1 [Compound 77] | > 80% | < 80%
Cc1cccc(Cn2cnc3c(NS(=O)(=O)C(F)(F)F)c(C)c(C)cc32)c1 [Compound 78] | < 55% | < 20%
Cc1cc2c(ncn2C)c(NS(C)(=O)=O)c1C [Compound 79] | < 80% | > 80%
Cc1cccc(Cn2cnc3c(NS(=O)(=O)c4ccc(F)cc4)c(C)c(C)cc32)c1 [Compound 80] | < 55% | < 80%
Cc1cc2c(ncn2Cc2ccc(Cl)cc2)c(CS(C)(=O)=O)c1C [Compound 81] | > 80% | < 80%
Cc1cc2c(ncn2Cc2ccc(Cl)cc2)c(NS(=O)(=O)c2cccc(Cl)c2)c1C [Compound 82] | > 80% | > 80%
Clc1ccc(Cn2cnc3ccncc32)cc1 [Compound 83] | < 80% | < 80%
Clc1ccc(Cn2cnc3cnccc32)cc1 [Compound 84] | < 80% | > 80%
Clc1ccc(Cn2cnc3cccnc32)cc1 [Compound 85] | > 80% | < 80%
Clc1ccc(Cn2cnc3ncccc32)cc1 [Compound 86] | > 80% | < 80%
Cc1cc2nc(C(C)O)n(Cc3ccc(Cl)cc3)c2cc1C (stereo not drawn) [Compound 87] | < 55% | < 55%
Cc1cc2nc(C(C)N3CCCC3)n(Cc3ccc(Cl)cc3)c2cc1C (stereo not drawn) [Compound 88] | < 55% | < 20%
Cc1cc2nc([C@H](C)N3CCC[C@H]3CO)n(Cc3ccc(Cl)cc3)c2cc1C [Compound 89] | < 55% | < 55%

SMILES | activity at 5 µM | activity at 10 µM
Cc1cc2nc([C@@H](C)C3CCC[C@H]3CO)n(Cc3ccc(Cl)cc3)c2cc1C (stereo partly drawn) [Compound 90] | < 80% | < 55%
Cc1cc2nc([C@H](C)N3CCC[C@@H]3CO)n(Cc3ccc(Cl)cc3)c2cc1C [Compound 91] | > 80% | > 80%
Cc1cc2nc([C@@H](C)N3CCC[C@@H]3CO)n(Cc3ccc(Cl)cc3)c2cc1C [Compound 92] | < 55% | < 20%
Fc1cc2ncn(Cc3ccc(Cl)cc3)c2cc1F [Compound 94] | < 80% | < 55%
OC[C@H]1CCCN1Cc1nc2ccccc2n1Cc1ccc(Cl)cc1 [Compound 95] | > 80% | < 80%
Cc1cc2nc(CC3CCCC3)n(Cc3ccc(Cl)cc3)c2cc1C [Compound 96] | < 80% | < 55%
Cc1cc2nc(CN3CCC[C@@H]3C)n(Cc3ccc(Cl)cc3)c2cc1C [Compound 97] | < 55% | < 20%
Cc1cc2nc(CN3CCC[C@H]3C)n(Cc3ccc(Cl)cc3)c2cc1C [Compound 98] | < 55% | < 20%
CCCS(=O)(=O)c1nc2ccccc2n1Cc1ccc(Cl)cc1 [Compound 99] | < 20% | < 20%
Clc1ccc(Cn2ccc3cc(Cl)cnc32)cc1 [Compound 100] | > 80% | < 80%
COc1c(Cl)cnc2c1ccn2Cc1ccc(Cl)cc1 [Compound 101] | > 80% | < 80%
Cc1c(Cl)cnc2c1ccn2Cc1ccc(Cl)cc1 [Compound 102] | < 80% | < 80%
N#Cc1cnc2c(ccn2Cc2ccc(Cl)cc2)c1 [Compound 103] | > 80% | < 55%
N#Cc1ccc2c(ccn2Cc2ccc(Cl)cc2)n1 [Compound 104] | < 55% | < 55%
N#Cc1cnc2ccn(Cc3ccc(Cl)cc3)c2c1 [Compound 105] | > 80% | > 80%
COc1ccc(Cn2c(C)nc3c(NS(=O)(=O)c4ccc(F)cc4)c(C)c(C)cc32)cc1 [Compound 107] | < 80% | < 55%
CCCC(=O)NCc1nc2ccccc2n1Cc1ccccc1C [Compound 109] | > 80% | > 80%
CC(=O)NCc1nc2ccccc2n1Cc1ccc(Cl)cc1 [Compound 110] | > 80% | > 80%
O=C(Cc1ccccc1)NCCCc1nc2ccccc2n1Cc1ccc(Cl)cc1 [Compound 111] | < 55% | < 20%
CCc1nc2ccccc2n1Cc1ccc(Cl)cc1 [Compound 112] | > 80% | < 80%
CCC(=O)NCc1nc2ccccc2[nH]1 [Compound 113] | > 80% | > 80%
CCn1c(CNC=O)nc2ccccc21 [Compound 114] | > 80% | > 80%
CC(C)(C)C(=O)NCc1nc2ccccc2[nH]1 [Compound 115] | < 80% | > 80%
CCCCCc1nc2ccccc2n1Cc1ccc(Cl)cc1 [Compound 116] | < 55% | < 20%
CCCCc1nc2ccccc2n1Cc1ccc(Cl)cc1 [Compound 117] | < 20% | < 20%

SMILES | activity at 5 µM | activity at 10 µM
CC(C)Cc1nc2ccccc2n1Cc1ccc(Cl)cc1 [Compound 118] | < 55% | < 55%
CC(C)c1nc2ccccc2n1Cc1ccc(Cl)cc1 [Compound 119] | < 80% | < 55%
Clc1ccc(Cn2c(Cc3ccccc3)nc3ccccc32)cc1 [Compound 120] | < 80% | < 55%
CC(C)c1nc2ccccc2n1Cc1ccc(Cl)cc1Cl [Compound 121] | > 80% | < 20%
Clc1ccc(Cn2c(Cc3ccccc3)nc3ccccc32)c(Cl)c1 [Compound 122] | < 55% | < 55%
FC(F)(F)c1nc2ccccc2n1Cc1ccc(Cl)cc1 [Compound 123] | > 80% | < 80%
FC(F)(F)c1nc2ccccc2n1Cc1ccc(Cl)c(Cl)c1 [Compound 124] | < 55% | < 55%
Cc1nc2cc(Cl)ccc2n1Cc1ccccc1 [Compound 125] | < 80% | –
CC(=O)N(C)Cc1nc2ccccc2n1Cc1ccc(Cl)cc1Cl [Compound 126] | < 80% | < 55%
Clc1ccc(Cn2c(CN3CCOCC3)nc3ccccc32)cc1 [Compound 127] | < 55% | < 55%
Cc1cc2ncn(Cc3ccccc3)c2cc1C [Compound 128] | < 55% | < 55%
Cc1cc2ncn(Cc3ccc(F)cc3)c2cc1C [Compound 129] | > 80% | > 80%
Cc1cc2ncn(Cc3ccc(Cl)cc3Cl)c2cc1C [Compound 130] | < 55% | < 20%
Cc1cc2ncn(Cc3ccc(Cl)c(Cl)c3)c2cc1C [Compound 131] | < 80% | < 55%
NC1=NC2CCCCC2N1C(=O)c1ccc(Cl)cc1 (stereo not drawn) [Compound 132] | > 80% | > 80%
Nc1nc2ccccc2n1C(=O)c1ccc(Cl)cc1 [Compound 133] | > 80% | < 55%
Brc1ccc(Cn2cnc3ccccc32)cc1 [Compound 134] | < 55% | < 20%
Cc1nc2ccccc2n1Cc1ccc(Br)cc1 [Compound 135] | < 20% | < 20%
OCc1nc2ccccc2n1Cc1ccc(Br)cc1 [Compound 136] | – | < 55%
N#Cc1ccc(Cn2cnc3ccccc32)cc1 [Compound 137] | < 80% | < 80%
Cc1cc2ncn(Cc3ccc(C#N)cc3)c2cc1C [Compound 138] | < 80% | > 80%
COC(=O)c1ccc(Cn2cnc3ccccc32)cc1 [Compound 139] | < 80% | < 55%
COc1ccc(Cn2cnc3ccccc32)cc1OC [Compound 140] | < 20% | < 55%
CC(C)(C)c1ccc(Cn2cnc3ccccc32)cc1 [Compound 141] | < 55% | < 20%
Cc1ccc(Cn2cnc3ccccc32)cc1 [Compound 142] | – | < 55%
